How the values were obtained:
[1] = system: TNF-alpha suppressed t-PA production in HUVECs; assay: Counter-acting TNF-alpha (0.1 ng/ml) suppression of t-PA in HUVEC; format: cell-based, human; settings: for concentration completely normalizing TNF-alpha suppressed t-PA production / concentration partly reversing TNF-alpha suppression of t-PA production: TNF-alpha 0.1 ng/ml 48 h, compound last 24 h
Experimental: Human umbilical vein endothelial cells (HUVECs) were prepared and cultured as described in Example 1. Confluent HUVECs were exposed to low concentrations of TNF-alpha (0.1 ng/ml) (Sigma-Aldrich) for 24 h. Thereafter, medium was replaced by fresh EGM-2 containing TNF-alpha and low concentrations of belinostat (10 nM to 300 nM) and incubated for 24 h. After 24 h, cells and conditioned media were harvested. Total RNA was prepared and RNA and secreted protein quantified as in Example 1.
We have previously shown that proinflammatory cytokines e.g. TNF-alpha and IL-1b suppress t-PA production in endothelial cells. We then investigated if VPA could reverse a TNF-alpha suppressed t-PA response. Human umbilical vein endothelial cells (HUVECs) were prepared by collagenase treatment of fresh umbilical cords (Jaffe, E. A., et al. J Clin Invest 52, 2745-2756 (1973)) obtained from the maternity ward of the Sahlgrenska University hospital, Gothenburg, Sweden. Cells were cultured in EGM-2 medium (Lonza, Basel, Switzerland) and all experiments were performed in passage 1 of subcultivation. Confluent HUVECs were pre-treated with 0.1 ng/ml human recombinant TNF-alpha (Sigma-Aldrich) for 24 hours then exposed to optimal concentrations VPA in complete medium. After incubation with the VPA and TNF-alpha for an additional 24 hours, cells and conditioned media were harvested.
Total RNA was prepared using RNeasy Mini RNA kit (Qiagen, Hilden, Germany) and genomic DNA was removed using RNase-free DNase I set (Qiagen). Levels of t-PA mRNA were analyzed with real-time RT-PCR, performed on an Applied Biosystems 7500 Fast Real-Time PCR System using cDNA and Taqman reagents obtained from Applied Biosystems (Foster City, Calif., USA). Hypoxanthine phosphoribosyl transferase (HPRT, Assay number Hs99999909_m1, Applied Biosystems) was used as endogenous internal standard.
Endothelial cells in culture are known to constitutively secrete the majority of synthesized t-PA making conditioned media a suitable source for quantification of t-PA protein. Conditioned medium from cell cultures was collected, centrifuged (10,000×g, 10 min, 4° C.) to remove cell debris, transferred to fresh tubes and stored at −70° C. Concentrations of t-PA antigen in conditioned media were determined using the commercially available TriniLize t-PA antigen ELISA (Trinity Biotech, Bray, Ireland) according to the manufacturer's protocol.

[2] = system: local release of t-PA from the endothelium; assay: Intermediate endpoint study: in vivo t-PA release in man (perfused-forearm model, Substance P); design: species or system human; settings: for increase of total amount of t-PA released (AUC): patients with stable angina pectoris, 2 weeks, daily oral dose: Vorinostat 10 mg, Belinostat 65 mg, Givinostat 2 mg, Panobinostat 0.5 mg, PCI-24781 2 mg, JNJ-26481585 0.2 mg, Mocetinostat 2 mg, SB939 0.4 mg, CXD101 10 mg
Experimental: The study comprises 16 patients with stable angina pectoris. Patients are investigated before and after oral treatment with 10 mg Vorinostat (Zolinza®, Merck & Co., Inc, NJ, USA) daily for 2 weeks. The study has a randomized, cross-over design and t-PA release capacity is investigated before and after treatment, with each individual serving as his/her own control
The capacity for t-PA release is investigated in the perfused-forearm model that we have developed, which is the only method that permits a direct measurement of the local release of t-PA from the endothelium (Hrafnkelsdottir, T., et al. Lancet 352, 1597-1598 (1998), Wall, U., et al. Blood 91, 529-537 (1998)). Since t-PA has a rapid hepatic clearance, it is impossible to infer endothelial release rates from plasma levels obtained from standard venous samples. With the invasive model, however, net forearm t-PA release rates are calculated from arterio-venous concentration gradients of t-PA after correction for forearm plasma flow. Acute t-PA release responses are induced by intra-arterial infusions of Substance P (Bachem, Bubendorf, Switzerland), and the amount and protein secretion profile is used as a measure of t-PA release capacity.
The study comprises 16 patients with stable angina pectoris and elevated serum levels of high-sensitivity C-reactive protein (hs-CRP) >3 mg/L. Patients are investigated before and after oral treatment with 100 mg valproic acid twice daily for 2 weeks. The study has a randomized, cross-over design and t-PA release capacity is investigated before and after treatment, with each individual serving as his/her own control.
The capacity for t-PA release is investigated in the perfused-forearm model that we have developed, which is the only method that permit a direct measurement of the local release of t-PA from the endothelium (Hrafnkelsdottir, T., et al. Lancet 352, 1597-1598 (1998), Wall, U., et al. Blood 91, 529-537 (1998). Since t-PA has a rapid hepatic clearance, it is impossible to infer endothelial release rates from plasma levels obtained from standard venous samples.
With the invasive model, however, net forearm t-PA release rates are calculated from arterio-venous concentration gradients of t-PA after correction for forearm plasma flow. Acute t-PA release responses are induced by intra-arterial infusions of Substance P (Bachem, Bubendorf, Switzerland), and the amount and protein secretion profile is used as a measure of t-PA release capacity.

[3] = system: healthy subjects with an increased risk for atherothrombotic cardiovascular events; assay: Primary preventive clinical outcome study; format: in vivo, human
Experimental: The third outcome study investigates the primary preventive effect of Vorinostat in healthy subjects with an increased risk for atherothrombotic cardiovascular events i.e. cigarette smoking, abnormal blood lipid levels, hypertension, diabetes, abdominal obesity, low-grade inflammation and/or atherosclerosis. Subjects are randomized to double-blind oral treatment with 10 mg Vorinostat or placebo daily. The risk of a primary atherothrombotic event is followed annually. The primary composite efficacy endpoint is mortality, or non-fatal myocardial infarction or ischemic stroke. The study is event-driven to a total of 180 events in the placebo group.
The third outcome study investigates the primary preventive effect of VPA in healthy subjects with an increased risk for atherothrombotic cardiovascular events due to low-grade inflammation. The inflammatory activation is clinically defined as an elevated serum level of high-sensitivity C-reactive protein (hs-CRP) >3 mg/L. Subjects are randomized to double-blind oral treatment with 100 mg valproic acid or placebo twice daily. The risk of a primary atherothrombotic event is followed annually. The primary composite efficacy endpoint is mortality, or non-fatal myocardial infarction or ischemic stroke. The study is event-driven to a total of 180 events in the placebo group. In this population the annual event rate is reduced by 30% from 1.5 to 1%.

[4] = HUVEC, present-tense Examples 12-18
[5] = daily oral dose: Vorinostat 10 mg, Belinostat 65 mg, Givinostat 2 mg, Panobinostat 0.5 mg, PCI-24781 2 mg, JNJ-26481585 0.2 mg, Mocetinostat 2 mg, SB939 0.4 mg, CXD101 10 mg
[6] = hs-CRP >3 mg/L, 100 mg valproic acid orally twice daily

## Nc1ccccc1NC(=O)c1ccc(CNc2nccc(-c3cccnc3)n2)cc1 [Mocetinostat]
[1]; [4]
  concentration completely normalizing TNF-alpha suppressed t-PA production: 300 nM
  concentration partly reversing TNF-alpha suppression of t-PA production: 10 nM
[2]
  increase of total amount of t-PA released (AUC): approximately 50%
[3]; [5]
  annual event rate with treatment (reduced from 1.5): 1%
  reduction of annual event rate: 30%

## CCCC(CCC)C(=O)O [VPA, valproic acid]
[1]; HUVEC, TNF-alpha 0.1 ng/ml, VPA additional 24 h
  concentration achieving complete normalization of TNF-alpha suppressed t-PA mRNA: 0.35 mM
[1]; TNF-suppressed cells
  concentrations needed to reverse the effect of TNF-alpha on t-PA expression: below 0.35 mM
[2]; stable angina pectoris and hs-CRP >3 mg/L, 100 mg valproic acid orally twice daily for 2 weeks
  increase of total amount of t-PA released: approximately 50%
[3]; [6]
  annual event rate with treatment (reduced from 1.5): 1%
  reduction of annual event rate: 30%

## Cn1cc(CNCC2CCN(c3ncc(C(=O)NO)cn3)CC2)c2ccccc21 [JNJ-26481585, N-hydroxy-2-(4-((((1-methyl-1H-indol-3-yl)methyl)amino)methyl)piperidin-1-yl)pyrimidine-5-carboxamide]
[1]; [4]
  concentration completely normalizing TNF-alpha suppressed t-PA production: 5 nM
  concentration partly reversing TNF-alpha suppression of t-PA production: 1 nM
[2]
  increase of total amount of t-PA released (AUC): approximately 50%
[3]; [5]
  annual event rate with treatment (reduced from 1.5): 1%
  reduction of annual event rate: 30%

## Cc1nn(C)cc1CN1CCC(c2ccc(C(=O)Nc3ccccc3N)cc2)CC1 [CXD101]
[1]; [4]
  concentration completely normalizing TNF-alpha suppressed t-PA production: 300 nM
  concentration partly reversing TNF-alpha suppression of t-PA production: 10 nM
[2]
  increase of total amount of t-PA released (AUC): approximately 50%
[3]; [5]
  annual event rate with treatment (reduced from 1.5): 1%
  reduction of annual event rate: 30%

## CN(C)Cc1c(C(=O)NCCOc2ccc(C(=O)NO)cc2)oc2ccccc12 [PCI-24781, 3-(dimethylaminomethyl)-N-[2-[4-(hydroxycarbamoyl)phenoxy]ethyl]-1-benzofuran-2-carboxamide]
[1]; [4]
  concentration completely normalizing TNF-alpha suppressed t-PA production: 200 nM
  concentration partly reversing TNF-alpha suppression of t-PA production: 10 nM
[2]
  increase of total amount of t-PA released (AUC): approximately 50%
[3]; [5]
  annual event rate with treatment (reduced from 1.5): 1%
  reduction of annual event rate: 30%

## O=C(/C=C/c1cccc(S(=O)(=O)Nc2ccccc2)c1)NO [Belinostat]
[1]; HUVEC
  concentration completely normalizing TNF-alpha suppressed t-PA production: 200 nM
  concentration partly reversing TNF-alpha suppression of t-PA production: 50 nM
[1]; TNF-alpha treated endothelium
  concentrations needed to off-set the inhibition of TNF-alpha on t-PA expression: 0.05 to 0.2 µM
[2]
  increase of total amount of t-PA released (AUC): approximately 50%
[3]; [5]
  annual event rate with treatment (reduced from 1.5): 1%
  reduction of annual event rate: 30%

## O=C(CCCCCCC(=O)Nc1ccccc1)NO [Vorinostat]
[1]; HUVEC
  concentration completely normalizing TNF-alpha suppressed t-PA production: 300 nM
  concentration partly reversing TNF-alpha suppression of t-PA production: 50 nM
[2]
  increase of total amount of t-PA released (AUC): approximately 50%
[3]; [5]
  annual event rate with treatment (reduced from 1.5): 1%
  reduction of annual event rate: 30%

## CCN(CC)Cc1ccc2cc(COC(=O)Nc3ccc(C(=O)NO)cc3)ccc2c1.Cl [Givinostat]
[1]; [4]
  concentration completely normalizing TNF-alpha suppressed t-PA production: 100 nM
  concentration partly reversing TNF-alpha suppression of t-PA production: 30 nM
[2]
  increase of total amount of t-PA released (AUC): approximately 50%
[3]; [5]
  annual event rate with treatment (reduced from 1.5): 1%
  reduction of annual event rate: 30%
